What was measured:
Type in all cases: cell-based, human
[1] = tested on: SVCT-2 high-expression cell lines, Sw620 and Sw480; assay: qRT-PCR gene expression analysis, SVCT-2 high-expression cell lines
Description: (§1) According to the method provided by the manufacturer, the total RNA of cells was extracted using TRI reagent (MRC; Molecular Research Center, Cincinnati, Ohio, USA). The RNA concentration was determined using a spectrophotometer reading the absorbance at 260 nm. cDNA was synthesized using mML-V reverse transcriptase (Bioneer Co, Daejeon, Republic of Korea) according to the protocol provided by the manufacturer. Then, using SYBR Premix Ex Taq (TaKaRa, Otsu, Shinga, Japan) and Rotor-Gene Q system (Qiagen, Chadstone, Victoria, Australia), quantitative real-time PCR was carried out. Data were analyzed using Rotor-Gene Q series software version 2.3.1 (Qiagen).
(§2) In order to confirm the apoptosis and hormetic proliferation response by vitamin C, the quantitative real-time polymerase chain reaction (qRT-PCR) gene-expression analysis of p53, Cyclin D1, E2F1 and Ki-67 genes was conducted using the method of Experimental example 3, and the result was shown in FIG. 2c to FIG. 2f.
After treating vitamin C 10 μM and phloretin to SVCT-2 high-expression cell lines, Sw480 and Sw620 at the same time, the relative expression of Ki-67 and E2F1 used as cancer cell proliferation markers was measured using the qRT-PCR of Example 1, and the result was shown in FIG. 5e and FIG. 5f.

[2] = tested on: SVCT-2 high-expression cell lines, Sw480 and Sw620; assay: Vitamin C absorption in Sw480 and Sw620 with the SVCT family inhibitor phloretin; details: phloretin 20 μM together with vitamin C 1 mM
Description: In order to measure the vitamin C absorption of each colorectal cancer cell line, the absorption of vitamin C in cells was analyzed with High Performance Liquid Chromatography (HPLC), and the result was shown in FIG. 1c.
Then, after treating 1 mM vitamin C, or treating vitamin C 1 mM and phloretin 20 μM together to each cell line of the SVCT-2 high-expression cell lines, Sw480 and Sw620, the vitamin C absorption was measured, and the result was shown in FIG. 9a.
The experimental results measured according to the method for measuring the vitamin C absorption of SVCT-2 expression cell lines of Example 1-3, after treating various concentrations (0 mM or 1 mM) of vitamin C and treating 1 mM vitamin C and 20 μM phloretin, for SVCT-2 high-expression cell lines, Sw480 and Sw620 were shown in FIG. 9a.

[3] = tested on: Sw620 and Sw480 cell lines; assay: ROS production by DCF-Da staining (FACS), SVCT-2 high-expression cell lines
Excerpt: In order to confirm ROS production in SVCT-2 high-expression cell lines in the apoptosis response and hormetic response, and more specifically confirm the cause of the result of Example 5, the present inventors investigated ROS production using DCF-Da staining in Sw620 cell line and Sw480 cell line, and the result was shown in FIG. 5c and FIG. 5d.

[4] = tested on: SVCT-2 high-expression cell lines, Sw480 and Sw620; assay: Western blot of Bax, c-Myc and Cyclin D1, SVCT-2 high-expression cell lines
Description: (§3) Protein was extracted from frozen tissue using PRO-PREP protein extraction kit according to the instruction of the manufacturer. The protein concentration was measured using Bradford assay (Bio-RAD, Munich, Germany)
(§4) After denaturalizing protein 30 μg in sample buffer at 95° C. for 6 minutes, samples were loaded on 12% SDS-polyacrylamide gel and were transferred to a nitrocellulose blotting membrane. Subsequently, the membrane was blocked with 5% skim milk in Tris-buffered saline. Then, after washing it with Tris-buffered saline-0.10% Tween 20 three times, the membrane was cultured at 4° C. overnight with anti-cyclin D1 (1:2500; NB600-584; Novus biologics), anti-c-Myc (1:2500; NB200-108; Novus biologics), anti-Bax (1:2000; 2774; Cell Signaling Technology, Beverly, Mass., USA), and anti-beta-actin (1:5000; ab20272; Abcam, Cambridge, Mass., USA) antibodies. Then, after washing it with Tris-buffered saline-0.10% Tween 20 4 times for 20 minutes, the membrane was cultured with a secondary anti-rabbit, anti-rat or anti-goat antibody for 1 hour. After additional washing, immunoreactive bands exposed to ECL substrate (Pierce, Rockford, Ill., USA) and X-ray film (Agfa-Gevaert N.V, Septestraat, Mortsel, Belgium) were detected.
After treating vitamin C 10 μM and phloretin to SVCT-2 high-expression cell lines, Sw480 and Sw620 at the same time, the western blot analysis of Bax, c-Myc and Cyclin D1 in cells was conducted, and the result was shown in FIG. 6c and FIG. 6d.

[5] = tested on: SVCT-2 high-expression cell lines, Sw480 and Sw620; assay: Cell viability of Sw480 and Sw620 treated with vitamin C and/or phloretin; details: for cell response (cell viability): Sw620 and Sw480
Description: (§5) The cell viability was measured by Neutral red (sigma) assay. Cells (1×10^4/each well) were inoculated on a 96-well plate and were cultured for 24 hours and were treated with vitamin C for 4 hours, and then were washed with PBS (Pan Biotech), and were further cultured in RPMI1640 without vitamin C for 20 hours. They were washed twice and were stained.

[6] = tested on: SVCT-2 high-expression cells; assay: c-Myc localization by immunocytochemistry, SVCT-2 high-expression cell lines; details: phloretin treated together with vitamin C
Description: (§6) Cells treated with vitamin C were immobilized with 4% paraformaldehyde for 10 minutes and were washed with PBS 3 times for 5 minutes, and then permeable buffer (Biolegend, San Diego, Calif., USA) was treated for 10 minutes. Then, cells were washed with PBS 3 times and were cultured with anti-c-Myc (1:500; NB200-108, Novus biologics) antibody at 4° C. overnight. Then, after washing with PBS 4 times, cells were cultured with a secondary anti-mouse-TRITC (1:1000; ab6786; Abcam) conjugated antibody.
In order to confirm the cell proliferation by the hormetic response in cancer cell lines, the cell proliferation confirmation experiment through c-Myc was conducted.
Specifically, after smearing cells on cover glass and culturing them, vitamin C was treated and after washing with PBS, an antigen with […] as antigens was attached to cells, and it was confirmed through fluorescence.

[7] = tested on: SVCT-2 low-expression cell lines, DLD-1 and HCT15; assay: qRT-PCR gene expression analysis, SVCT-2 low-expression cell lines
Description: as §1, §2

[8] = tested on: SVCT high-expression cell lines (Sw480, Sw620, LoVo, SNU-C4); assay: Cell viability (Neutral red), vitamin C concentration gradient, SVCT-2 high-expression cell lines
Description: as §5
(§7) In order to research a role conducted by vitamin C treated at a high concentration or low concentration to cancer cell lines, after treating vitamin C at various concentrations according to a concentration gradient to each cell line, the cell viability analysis was conducted using the method of Experimental example 2.
As same as the SVCT low-expression cell lines, after treating vitamin C to SVCT high-expression cell lines (Sw480, Sw620, LoVo, SNU-C4) according to a concentration gradient (0 μm to 2 mM), the cell viability was measured, and the result was shown in FIG. 2b. It was confirmed that in case of high-expression cell lines, when treating a low concentration of vitamin C, the cell viability was reduced, and as the treated concentration of vitamin C increased, the cell viability was reduced more.

[9] = tested on: HCT15 and DLD-1 cell lines; assay: c-Myc localization by immunocytochemistry, SVCT-2 low-expression cell lines; details: vitamin C 1 mM or 10 μM
Description: as §6
In order to investigate the expression of cancer proliferation markers in SVCT-2 low-expression cell lines and localization where c-Myc is present in cancer cell lines, after treating vitamin C of 1 mM or 10 μM to each SVCT-2 low-expression cell line, HCT15 and DLD-1 cell lines, the immunocytochemistry of Experimental example 5 was conducted, and the result was shown in FIGS. 4a and 4b.

[10] = tested on: SVCT-2 low-expression cell lines (DLD1 and HCT15); assay: ROS production by DCF-Da staining (FACS), SVCT-2 low-expression cell lines; details: 15 minutes, DLD-1 and HCT15
Description: In order to investigate ROS production, when treating vitamin C of 10 μM or 1 mM to SVCT-2 low-expression cell lines (DLD1 and HCT15), after treating each dose of vitamin C to SVCT-2 low-expression cell lines, they were stained with DCF-Da, and the ROS measurement result was shown in FIG. 3a and FIG. 3b.

[11] = tested on: colorectal cancer cell lines (Sw480, Sw620, LoVo, SNU-C4, HCT116, SNU-05, CoLo-205, HCT15, DLD-1); assay: Cell viability (Neutral red) of colorectal cancer cell lines treated with 1 mM vitamin C; details: nine colorectal cancer cell lines
Description: Human colorectal cancer cells were cultured in RPMI1640 medium Gilbco, Cergy Pontoise, France) containing 10% bovine fetal serum (PAN Biotech, Aidenbach, Germany) and 1% Penstrep (PAN Biotech) in a humidified incubator comprising 5% CO2 under the condition of 37° C. Vitamin C was purchased from BCWORLD PHARM (BCWORLD PHARM. CO, Seoul, Korea), and phloretin was purchased from sigma Aldrich (Sigma, St. Louis, Mo., USA).
The human colorectal cancer cell lines used in the experiment were Sw480, Sw620, HCT116, HCT15, SNU-C4, SNU-05, DLD-1, LoVo, and CoLo-205 cell lines commonly used in the related art. All the colorectal cancer cell lines used in the experiment of the present invention were received from Dr. Yu Byung-Chul of National Cancer Center.
as §5
The cell viability of each colorectal cancer cell line was measured using the method of Experimental example 2, and the result was shown in FIG. 1b.

HCT15 and DLD-1 = assay: Western blot of Bax, c-Myc and Cyclin D1, SVCT-2 low-expression cell lines
Description: as §3, §4
In order to investigate the apoptosis and proliferation of cancer cells by vitamin C treatment in the protein expression level, a low concentration or high concentration of vitamin C was treated to SVCT-2 low-expression cell lines and the western blot analysis of Bax, c-Myc, and Cyclin D1 was conducted using the method of Experimental example 4, and the result was shown in FIG. 4c and FIG. 4d.

[12] = tested on: SVCT-2 low-expression cell lines (HCT116, CoLo-205, HCT15, DLD-1); assay: Cell viability (Neutral red), vitamin C concentration gradient, SVCT-2 low-expression cell lines
Description: as §5, §7
After treating vitamin C to SVCT-2 low-expression cell liens (HCT116, CoLo-205, HCT15, DLD-1) according to a concentration gradient (0 μm to 2 mM), the cell viability was measured, and the result was shown in FIG. 2a.

[13] = vitamin C 10 μM and phloretin at the same time, Sw620 and Sw480
[14] = 10 μM vitamin C and phloretin at the same time
[15] = low concentration (10 μM) vitamin C, DLD-1 and HCT15
[16] = vitamin C 10 μM or 1 mM, Sw620 and Sw480
[17] = 10 μM or 1 mM vitamin C without phloretin

Compound: O=C(CCc1ccc(O)cc1)c1c(O)cc(O)cc1O [phloretin]
- expression of E2F1 (qRT-PCR) [1, 13]: increased
- expression of Ki-67 (qRT-PCR) [1, 13]: increased
- intracellular capacity of vitamin C (vitamin C absorption) [2]: reduced
- ROS production (DCF-Da) ([3]; 20 μM phloretin with 10 μM vitamin C): not sufficiently produced
- expression of C-Myc (western blot) [4, 14]: increased
- expression of cyclin D1 (western blot) [4, 14]: increased
- Bax expression (western blot) ([4]; phloretin treatment (with 10 μM vitamin C)): did not change remarkably
- cytotoxicity of phloretin (cell viability assay) ([5]; concentration of phloretin used in the experiment (20 μM; 0-40 μM tested), Sw480 and Sw620): no cell self-toxicity
- cell response (cell viability) ([5]; phloretin together with vitamin C 10 μM): hormetic proliferation response occurred
- localization of increased c-Myc (immunocytochemistry) [6]: present in cytoplasm not a nucleus

Compound: O=C1O[C@H]([C@@H](O)CO)C(O)=C1O [vitamin C, L-ASCORBIC ACID]
- expression of p53 (qRT-PCR) ([7]; 10 μM and 1 mM tested, SVCT-2 low-expression cell lines): induced only in case of treatment of 1 mM vitamin C
- expression of E2F1 (qRT-PCR) [7, 15]: increased
- expression of Ki-67 (qRT-PCR) [7, 15]: increased
- expression of cyclin D1 (qRT-PCR) [7, 15]: increased
- expression of p53 (qRT-PCR) ([1]; 10 μM and 1 mM, SVCT-2 high-expression cell lines): increased
- expression of E2F1 (qRT-PCR) [1, 16]: reduced
- expression of Ki-67 (qRT-PCR) [1, 16]: reduced
- expression of cyclin D1 (qRT-PCR) [1, 16]: reduced
- ROS production (DCF-Da) ([3]; 1 mM vitamin C or 10 μM vitamin C): produced
- cell viability ([8]; as the treated concentration of vitamin C increased (up to 2 mM)): reduced more
- cell viability ([8]; low concentration of vitamin C): reduced
- c-Myc localization (immunocytochemistry) [9]: almost localized in cytoplasm
- ROS production (DCF-Da) ([10]; 10 μM vitamin C): not produced
- ROS production (DCF-Da) ([10]; 1 mM vitamin C): produced
- expression of C-Myc (western blot) [4, 17]: significantly reduced
- expression of cyclin D1 (western blot) [4, 17]: significantly reduced
- Bax expression (western blot) ([4]; vitamin C treatment (10 μM or 1 mM)): increased
- cell response (cell viability) ([5]; vitamin C 1 mM and 10 μM, without phloretin): apoptosis response was induced
- cytotoxicity of vitamin C (cell viability) [11]: proportional to SVCT-2 expression
- expression of c-Myc (western blot) (HCT15 and DLD-1; 10 μM vitamin C): increased
- expression of cyclin D1 (western blot) (HCT15 and DLD-1; 10 μM vitamin C): increased
- expression of c-Myc (western blot) (HCT15 and DLD-1; 1 mM vitamin C): reduced
- expression of cyclin D1 (western blot) (HCT15 and DLD-1; 1 mM vitamin C): reduced
- Bax expression (western blot) (HCT15 and DLD-1; vitamin C 1 mM and 10 μM): did not significantly change
- cell viability ([12]; vitamin C 1.0 mM to 2.0 mM or more): dramatically reduced
- cell viability ([12]; vitamin C less than 10 μM): over 100%

From patent US20200011852A1, “METHODS FOR PREDICTING THE ANTICANCER THERAPEUTIC RESPONSE OF L-ASCORBIC ACID” (priority 2018, published 2020)
